Data from patent US8685674B2, “Chondroitin synthase, method for producing the same and method for producing saccharide chain-extended chondroitin” (Glytech, Inc., priority 2001, dated 2014).

Legend:
Format in all cases: biochemical
[1] = target: T1, soluble chondroitin synthase fused with a cleavable insulin signal sequence and a protein A (Homo sapiens, UniProt Q86X52, R588T); test: GlcUA transferase I (GlcAT-I) assay, UDP-[14C]GlcUA as donor; details: enzyme-bound beads, MES pH 6.5, 2 mM MnCl2, 37° C., one hour, average of two experiments
T1 construct: ID; NO: 2; made in house; host or cells: COS-1 cells (transient transfection; secreted fusion protein captured from the medium on IgG-Sepharose beads)
T1 sequence (Q86X52 47-802 R588T): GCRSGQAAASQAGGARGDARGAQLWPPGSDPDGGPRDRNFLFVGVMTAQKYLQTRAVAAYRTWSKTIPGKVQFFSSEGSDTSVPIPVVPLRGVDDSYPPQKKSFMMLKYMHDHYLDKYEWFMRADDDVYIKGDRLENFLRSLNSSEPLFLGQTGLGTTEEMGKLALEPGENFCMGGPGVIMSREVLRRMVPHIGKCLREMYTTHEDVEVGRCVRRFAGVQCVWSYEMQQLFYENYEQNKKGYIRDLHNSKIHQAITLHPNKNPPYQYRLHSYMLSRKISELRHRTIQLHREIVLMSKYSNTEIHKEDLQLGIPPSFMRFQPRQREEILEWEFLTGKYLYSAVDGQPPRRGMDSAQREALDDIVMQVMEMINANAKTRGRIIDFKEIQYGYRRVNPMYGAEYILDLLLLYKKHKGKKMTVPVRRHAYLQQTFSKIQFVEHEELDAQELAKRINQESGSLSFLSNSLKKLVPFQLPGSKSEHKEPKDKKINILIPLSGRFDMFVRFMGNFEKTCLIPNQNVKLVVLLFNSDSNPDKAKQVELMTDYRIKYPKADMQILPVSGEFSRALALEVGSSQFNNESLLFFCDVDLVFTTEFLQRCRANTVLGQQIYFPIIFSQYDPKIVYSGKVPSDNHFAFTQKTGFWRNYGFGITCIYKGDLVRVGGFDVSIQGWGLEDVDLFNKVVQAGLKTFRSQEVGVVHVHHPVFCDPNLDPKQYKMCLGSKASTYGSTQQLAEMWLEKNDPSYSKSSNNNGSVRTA
Protocol: (§1) By using FuGENE (Trademark) 6 (Roche Molecular Biochemicals Co., Tokyo), an expression plasmid (6.7 μg) was transfected into a COS-1 cell on a 100 mm plate, in accordance with a manual of the manufacture. On the second day from the transfection, 1 ml of an incubation liquid was collected and incubated together with 10 μL of IgG-Sepharose (Amersham Pharmacia Biotech) at 4° C. for one hour. Beads of the IgG-Sepharose was collected by centrifugation, and then washed with an assay buffer. After that, the beads were resuspended in an assay buffer of the same kind as the assay buffer. The beads were used for assaying GalNAc transferase, GlcUA transferase, and Gal transferase. That is, a fused protein occurred in the incubation liquid was absorbed by IgG-Sepharose so as to remove glycosyltransferases in the incubation liquid. […]
(§2) Assay of GlcUA transferase I (GlcAT-I), which is necessary for synthesis of tetrasaccharide for the linkage region, was carried out with a mixture of, in 30 μL in total, 10 μL of the resuspended beads, 1 nmol Galβ1-3Galβ1-4Xyl, 14.3 μM UDP-[^14C]GlcUA (1.46×10^5 dpm), 50 mM MES buffer, pH6.5, and 2 mM MnCl2 (FEBS lett. 459, 415-420 (1999)). […] The thus collected labeled products were quantified by liquid scintillation spectroscopy.

[2] = target: T1, soluble chondroitin synthase fused with a cleavable insulin signal sequence and a protein A; test: GalNAc transferase assay, UDP-[3H]GalNAc as donor; details: for ACTIVITY (receptor specificity): enzyme-bound beads, MES pH 6.5, 10 mM MnCl2, 37° C., one hour, average of two experiments
Protocol: By using FuGENE (Trademark) 6 (Roche Molecular Biochemicals Co., Tokyo), an expression plasmid (6.7 μg) was transfected into a COS-1 cell on a 100 mm plate, in accordance with a manual of the manufacture. On the second day from the transfection, 1 ml of an incubation liquid was collected and incubated together with 10 μL of IgG-Sepharose (Amersham Pharmacia Biotech) at 4° C. for one hour. Beads of the IgG-Sepharose was collected by centrifugation, and then washed with an assay buffer. After that, the beads were resuspended in an assay buffer of the same kind as the assay buffer. The beads were used for assaying GalNAc transferase, GlcUA transferase, and Gal transferase. That is, a fused protein occurred in the incubation liquid was absorbed by IgG-Sepharose so as to remove glycosyltransferases in the incubation liquid. Then, by using the enzyme bound beads as an enzyme source, glycosyltransferase activity of the fused protein that was bound to the beads was assayed with various receptor substrates and donor substrates.
As a receptor for GalNAc transferase, a polymer (167 μg) of chondroitin, α-thrombomodulin (1 nmol), or GlcUAβ1-3Galβ1-3Galβ1-4Xylβ1-0-Ser (1 nmol) was used. Moreover, as a receptor for GlcUA transferase, the polymer (167 μg) of chondroitin or Galβ1-3Galβ1-4Xylβ (1 nmol) was used. As a receptor of Gal transferase, sheep submandibular asialomucin (300 μg) or GlcNAcβ1-3Galβ1-4GlcNAcβ1-3Galβ1-4GlcNAc (1 nmol) was used. […]
as §2

[3] = target: T1, soluble chondroitin synthase fused with a cleavable insulin signal sequence and a protein A; test: GlcUA transferase II (GlcAT-II) assay, chondroitin polymer as receptor, UDP-[14C]GlcUA as donor
Protocol: as §1, §2

[4] = target: T1, soluble chondroitin synthase fused with a cleavable insulin signal sequence and a protein A; test: Gal transferase assay, UDP-[3H]Gal as donor; details: enzyme-bound beads, MES pH 6.5, 10 mM MnCl2, 37° C., one hour, average of two experiments
Protocol: as §1, §2

## OC[C@H]1O[C@@H](O[C@H]2[C@@H](O)[C@@H](CO)O[C@@H](O[C@@H]3COC(O)[C@H](O)[C@H]3O)[C@@H]2O)[C@H](O)[C@@H](O)[C@H]1O (stereo partly shown) [Galβ1-3Galβ1-4Xyl]
[1]
  ACTIVITY (receptor specificity): ND (ND: Not Detected (<0.1 pmol/ml medium/time))

## N[C@@H](CO[C@@H]1OC[C@@H](O[C@@H]2O[C@H](CO)[C@H](O)[C@H](O[C@@H]3O[C@H](CO)[C@H](O)[C@H](O[C@@H]4O[C@H](C(=O)O)[C@@H](O)[C@H](O)[C@H]4O)[C@H]3O)[C@H]2O)[C@H](O)[C@H]1O)C(=O)O [GlcUAβ1-3Galβ1-3Galβ1-4Xylβ-O-Ser, GlcUAβ1-3Galβ1-3Galβ1-4Xylβ1-O-Ser]
[2]
  ACTIVITY (receptor specificity): ND (ND: Not Detected (<0.1 pmol/ml medium/time))

## Chondroitin
[3]
  glycosyltransferase activity detected or not (in words): Activities were detected
[3]; enzyme-bound IgG-Sepharose beads, pH 5.6, 10 mM MnCl2, 37° C., one hour, average of two experiments
  ACTIVITY (receptor specificity): 5.2 pmol/ml medium/time
[2]
  glycosyltransferase activity detected or not (in words): Activities were detected
  ACTIVITY (receptor specificity): 1.4 pmol/ml medium/time

## GlcNAcβ1-3Galβ1-4GlcNAcβ1-3Galβ1-4GlcNAc
[4]
  ACTIVITY (receptor specificity): ND (ND: Not Detected (<0.1 pmol/ml medium/time))
